Source: patent US20020137929A1, “1 - (3-heterocyclylphenyl) isothiourea, -isourea, -guanidine and -amidine herbicidal agents” (Intellectual Property Department, BASF Aktiengesellschaft, priority 1998, published 2002)

Assays:
CASOB (Sicklepod) = experiment: Postemergence herbicidal evaluation; format: in vivo, Cassia obtusifolia; settings: postemergence
Procedure, shortened: (§1)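 Visual 0-9 injury score (stand, vigor, malformation, size, chlorosis, appearance vs untreated) taken four to five weeks post-spray, averaged across repeat tests. Test plants about two weeks old; foliar spray of acetone/water (1:1) with 0.5% surfactant delivering ~0.0156-0.500 kg active/ha.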

[1] = tested on: CHEAL (Lambsquarters, Common); experiment: Postemergence herbicidal evaluation; format: in vivo, Chenopodium album; settings: postemergence
Procedure, shortened: as §1

GALAP (Galium) = experiment: Postemergence herbicidal evaluation; format: in vivo, Galium aparine; settings: postemergence
Procedure, shortened: as §1

ORYSAT (Rice, Tebonnet) [2] = experiment: Postemergence herbicidal evaluation; format: in vivo, Oryza sativa, (L.) Tebonnet; settings: postemergence
Procedure, shortened: as §1

ZEAMX (Corn, Field) = experiment: Postemergence herbicidal evaluation; format: in vivo, Zea mays; settings: postemergence
Procedure, shortened: as §1

AMBEL (Ragweed, Common) = experiment: Preemergence herbicidal evaluation; format: in vivo, Ambrosia artemisifolia; settings: rated 4-5 weeks after treatment, rating scale 0-9
Procedure, shortened: (§2)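 Scores (0–9) reflect visual comparison with control plants for stand, vigor, malformation, size and chlorosis. Compound was applied to the soil after sowing, before emergence, as an aqueous acetone spray (about 0.0156–0.500 kg/ha), and cups were kept in a greenhouse for 4–5 weeks.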

SETVI (Foxtail, Green) = experiment: Preemergence herbicidal evaluation; format: in vivo, Setaria viridis; settings: rated 4-5 weeks after treatment, rating scale 0-9
Procedure, shortened: as §2

[3] = tested on: GLXMAW (Soybean, Williams); experiment: Preemergence herbicidal evaluation; format: in vivo, Glycine max, (L.) Merr. cv Williams; settings: rated 4-5 weeks after treatment, rating scale 0-9
Procedure, shortened: as §2

ORYSAT (Rice, Tebonnet) [4] = experiment: Preemergence herbicidal evaluation; format: in vivo, Oryza sativa, (L.) Tebonnet; settings: rated 4-5 weeks after treatment, rating scale 0-9
Procedure, shortened: as §2

CYPSE (Flatsedge) = experiment: Preemergence weed control under flooded paddy conditions; format: in vivo, Cyperus serotinus; settings: rated 3-4 weeks after treatment
Procedure, shortened: (§3)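 Flooded-pot preemergence screen with silt loam and seeds in the upper 0.5 cm. Dose about 0.0313 to 0.500 kg/ha, delivered into flood water; visual 0-9 score after 3 to 4 weeks.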

MOOVA (Monochoria) = experiment: as above; format: in vivo, Monochoria vaginalis; settings: rated 3-4 weeks after treatment
Procedure, shortened: as §3

Cc1cccc(CN2C(=O)CSC2=Nc2cc(-n3c(=O)cc(C(F)(F)F)n(C)c3=O)c(F)cc2Cl)c1 [Compound 130, 3-{4-Chloro-2-fluoro-5-{[3-(m-methylbenzyl)-4-oxo-2-thiazolidinylidene]amino}phenyl}-1-methyl-6-(trifluoromethyl)-2,4 (1H, 3H)-pyrimidinedione]
herbicidal rating CASOB (CASOB (Sicklepod); rate 0.0156 kg/ha): 2.0
herbicidal rating CASOB (CASOB (Sicklepod); rate 0.0313 kg/ha): 4.0
herbicidal rating CASOB (CASOB (Sicklepod); rate 0.0625 kg/ha): 5.0
herbicidal rating CHEAL ([1]; rate 0.0156 kg/ha): 7.0
herbicidal rating CHEAL ([1]; rate 0.0313 kg/ha): 9.0
herbicidal rating CHEAL ([1]; rate 0.0625 kg/ha): 9.0
herbicidal rating GALAP (GALAP (Galium); rate 0.0156 kg/ha): 2.0
herbicidal rating GALAP (GALAP (Galium); rate 0.0313 kg/ha): 3.0
herbicidal rating GALAP (GALAP (Galium); rate 0.0625 kg/ha): 5.0
herbicidal rating ORYSAT (ORYSAT (Rice, Tebonnet) [2]; rate 0.0156 kg/ha): 3.0
herbicidal rating ORYSAT (ORYSAT (Rice, Tebonnet) [2]; rate 0.0313 kg/ha): 3.0
herbicidal rating ORYSAT (ORYSAT (Rice, Tebonnet) [2]; rate 0.0625 kg/ha): 3.5
herbicidal rating ZEAMX (ZEAMX (Corn, Field); rate 0.0156 kg/ha): 4.5
herbicidal rating ZEAMX (ZEAMX (Corn, Field); rate 0.0313 kg/ha): 4.5
herbicidal rating ZEAMX (ZEAMX (Corn, Field); rate 0.0625 kg/ha): 5.0
Preemergence herbicidal rating AMBEL (AMBEL (Ragweed, Common); rate 0.0156 kg/ha): 0.0
Preemergence herbicidal rating AMBEL (AMBEL (Ragweed, Common); rate 0.0313 kg/ha): 1.0
Preemergence herbicidal rating AMBEL (AMBEL (Ragweed, Common); rate 0.0625 kg/ha): 7.0
Preemergence herbicidal rating AMBEL (AMBEL (Ragweed, Common); rate 0.1250 kg/ha): 9.0
Preemergence herbicidal rating AMBEL (AMBEL (Ragweed, Common); rate 0.2500 kg/ha): 9.0
Preemergence herbicidal rating SETVI (SETVI (Foxtail, Green); rate 0.0156 kg/ha): 0.0
Preemergence herbicidal rating SETVI (SETVI (Foxtail, Green); rate 0.0313 kg/ha): 6.0
Preemergence herbicidal rating SETVI (SETVI (Foxtail, Green); rate 0.0625 kg/ha): 7.0
Preemergence herbicidal rating SETVI (SETVI (Foxtail, Green); rate 0.1250 kg/ha): 7.0
Preemergence herbicidal rating SETVI (SETVI (Foxtail, Green); rate 0.2500 kg/ha): 9.0
Preemergence herbicidal rating GLXMAW ([3]; rate 0.0156 kg/ha): 0.0
Preemergence herbicidal rating GLXMAW ([3]; rate 0.0313 kg/ha): 0.0
Preemergence herbicidal rating GLXMAW ([3]; rate 0.0625 kg/ha): 2.0
Preemergence herbicidal rating GLXMAW ([3]; rate 0.1250 kg/ha): 3.0
Preemergence herbicidal rating GLXMAW ([3]; rate 0.2500 kg/ha): 5.0
Preemergence herbicidal rating ORYSAT (ORYSAT (Rice, Tebonnet) [4]; rate 0.0156 kg/ha): 0.0
Preemergence herbicidal rating ORYSAT (ORYSAT (Rice, Tebonnet) [4]; rate 0.0313 kg/ha): 0.0
Preemergence herbicidal rating ORYSAT (ORYSAT (Rice, Tebonnet) [4]; rate 0.0625 kg/ha): 1.0
Preemergence herbicidal rating ORYSAT (ORYSAT (Rice, Tebonnet) [4]; rate 0.1250 kg/ha): 3.0
Preemergence herbicidal rating ORYSAT (ORYSAT (Rice, Tebonnet) [4]; rate 0.2500 kg/ha): 6.0
herbicidal effect rating, CYPSE (CYPSE (Flatsedge); 0.0313 kg/ha): 5.0
herbicidal effect rating, CYPSE (CYPSE (Flatsedge); 0.0625 kg/ha): 5.0
herbicidal effect rating, CYPSE (CYPSE (Flatsedge); 0.1250 kg/ha): 0.0
herbicidal effect rating, CYPSE (CYPSE (Flatsedge); 0.2500 kg/ha): 7.0
herbicidal effect rating, MOOVA (MOOVA (Monochoria); 0.0313 kg/ha): 0.0
herbicidal effect rating, MOOVA (MOOVA (Monochoria); 0.0625 kg/ha): 0.0
herbicidal effect rating, MOOVA (MOOVA (Monochoria); 0.1250 kg/ha): 6.0
herbicidal effect rating, MOOVA (MOOVA (Monochoria); 0.2500 kg/ha): 6.0

Cn1c(C(F)(F)F)cc(=O)n(-c2cc(N=C3SCC(=O)N3Cc3ccc(S(N)(=O)=O)cc3)c(Cl)cc2F)c1=O [Compound 135, Alpha-{2-{{2-chloro-5-[3,6-dihydro-3-methyl-2,6-dioxo-4-(trifluoromethyl)-1(2H)-pyrimidinyl]-4-fluorophenyl}imino}-4-oxo-3-thiazolidinyl}-p-toluenesulfonamide]
herbicidal rating CASOB (CASOB (Sicklepod); rate 0.0156 kg/ha): 2.0
herbicidal rating CASOB (CASOB (Sicklepod); rate 0.0313 kg/ha): 4.0
herbicidal rating CASOB (CASOB (Sicklepod); rate 0.0625 kg/ha): 4.0
herbicidal rating CHEAL ([1]; rate 0.0156 kg/ha): 4.0
herbicidal rating CHEAL ([1]; rate 0.0313 kg/ha): 7.0
herbicidal rating CHEAL ([1]; rate 0.0625 kg/ha): 9.0
herbicidal rating GALAP (GALAP (Galium); rate 0.0156 kg/ha): 1.0
herbicidal rating GALAP (GALAP (Galium); rate 0.0313 kg/ha): 3.0
herbicidal rating GALAP (GALAP (Galium); rate 0.0625 kg/ha): 4.0
herbicidal rating ORYSAT (ORYSAT (Rice, Tebonnet) [2]; rate 0.0156 kg/ha): 2.0
herbicidal rating ORYSAT (ORYSAT (Rice, Tebonnet) [2]; rate 0.0313 kg/ha): 2.0
herbicidal rating ORYSAT (ORYSAT (Rice, Tebonnet) [2]; rate 0.0625 kg/ha): 2.5
herbicidal rating ZEAMX (ZEAMX (Corn, Field); rate 0.0156 kg/ha): 3.5
herbicidal rating ZEAMX (ZEAMX (Corn, Field); rate 0.0313 kg/ha): 4.0
herbicidal rating ZEAMX (ZEAMX (Corn, Field); rate 0.0625 kg/ha): 4.0
Preemergence herbicidal rating AMBEL (AMBEL (Ragweed, Common); rate 0.0156 kg/ha): 0.0
Preemergence herbicidal rating AMBEL (AMBEL (Ragweed, Common); rate 0.0313 kg/ha): 0.0
Preemergence herbicidal rating AMBEL (AMBEL (Ragweed, Common); rate 0.0625 kg/ha): 0.0
Preemergence herbicidal rating AMBEL (AMBEL (Ragweed, Common); rate 0.1250 kg/ha): 4.0
Preemergence herbicidal rating AMBEL (AMBEL (Ragweed, Common); rate 0.2500 kg/ha): 7.0
Preemergence herbicidal rating SETVI (SETVI (Foxtail, Green); rate 0.0156 kg/ha): 0.0
Preemergence herbicidal rating SETVI (SETVI (Foxtail, Green); rate 0.0313 kg/ha): 0.0
Preemergence herbicidal rating SETVI (SETVI (Foxtail, Green); rate 0.0625 kg/ha): 2.0
Preemergence herbicidal rating SETVI (SETVI (Foxtail, Green); rate 0.1250 kg/ha): 4.0
Preemergence herbicidal rating SETVI (SETVI (Foxtail, Green); rate 0.2500 kg/ha): 7.0
Preemergence herbicidal rating GLXMAW ([3]; rate 0.0156 kg/ha): 0.0
Preemergence herbicidal rating GLXMAW ([3]; rate 0.0313 kg/ha): 0.0
Preemergence herbicidal rating GLXMAW ([3]; rate 0.0625 kg/ha): 0.0
Preemergence herbicidal rating GLXMAW ([3]; rate 0.1250 kg/ha): 1.0
Preemergence herbicidal rating GLXMAW ([3]; rate 0.2500 kg/ha): 3.0
Preemergence herbicidal rating ORYSAT (ORYSAT (Rice, Tebonnet) [4]; rate 0.0156 kg/ha): 1.0
Preemergence herbicidal rating ORYSAT (ORYSAT (Rice, Tebonnet) [4]; rate 0.0313 kg/ha): 1.0
Preemergence herbicidal rating ORYSAT (ORYSAT (Rice, Tebonnet) [4]; rate 0.0625 kg/ha): 1.0
Preemergence herbicidal rating ORYSAT (ORYSAT (Rice, Tebonnet) [4]; rate 0.1250 kg/ha): 1.0
Preemergence herbicidal rating ORYSAT (ORYSAT (Rice, Tebonnet) [4]; rate 0.2500 kg/ha): 7.0
herbicidal effect rating, CYPSE (CYPSE (Flatsedge); 0.1250 kg/ha): 0.0
herbicidal effect rating, CYPSE (CYPSE (Flatsedge); 0.2500 kg/ha): 0.0
herbicidal effect rating, MOOVA (MOOVA (Monochoria); 0.0313 kg/ha): 6.0
herbicidal effect rating, MOOVA (MOOVA (Monochoria); 0.0625 kg/ha): 9.0
herbicidal effect rating, MOOVA (MOOVA (Monochoria); 0.1250 kg/ha): 9.0
herbicidal effect rating, MOOVA (MOOVA (Monochoria); 0.2500 kg/ha): 8.0
